Entries after “also recorded” stand apart in the source; their conditions may differ. Values belong to the compound of their own block, whether it stands above or below them.
Assays:
[1] = system: NEK2 expression in MM, lung cancer and breast cancer cells; experiment: Inhibition of NEK2 expression in cancer cell lines (western blots); assay type: cell-based; conditions: especially NEK2 over-expressed
Procedure: FIG. 7a is a graph showing the results of screening a Kinase Inhibitor Library.
Western Blots. Western blots were performed to examine the protein levels in MM cells as previously described in Xiong, W., et al. Blood 112, 4235-4246 (2008) and Zhan, F., et al. Blood 109, 4995-5001 (2007). NEK2 antibodies were purchased from BD Biosciences Pharmingen (San Jose, Calif.); and all other primary antibodies were purchased from Cell Signaling Technology (Beverly, Mass.). β-actin was used to normalize the amount of protein in each sample.

[2] = system: NEK2-transfected OCI-MY5, H1299 and MCF7 cells and EV control cells; experiment: Cytotoxic effects of KP372-1 on NEK2-overexpressing cell lines; assay type: cell-based; conditions: 5 μM, 5 days
Procedure: Cell proliferation assay. Briefly, cancer cells transfected with NEK2 cDNA or NEK2 shRNA and their relative controls of empty vector or Scrambled shRNA were seeded in 12-well plates at 0.2×10^6 per well. All tests were set in triplicate or quadruplicate. Cultured cells were counted with a hemocytometer to evaluate cellular proliferation, and dead cells were determined by trypan blue staining, from which dead-cell fraction was calculated. Cell proliferation assays were done at various time points for at least one week after infection or addition doxycycline one day.
We then determined the cytotoxic effects of this compound KP372-1 on the NEK2-overexpressing myeloma cell lines. Cultures of cell lines transfected with a vector for overexpression of NEK2 (myeloma OCI-MY5, a lung cancer cell line H1299, and a breast cancer cell line MCF7) were treated with 5 μM KP372-1 for 5 days. Cell proliferation and cell death were evaluated. Empty vector (EV)-transfected cancer cells with or without treatment were used as controls.

[3] = system: KMS28PE and ARP1 cells, bortezomib-resistant (vel-R) and bortezomib-sensitive; experiment: KP372-1 treatment of bortezomib-resistant and bortezomib-sensitive myeloma cell lines; assay type: cell-based
Procedure: FIGS. 9a-9d are a series of graphs showing the treatment with KP372-1 overcomes drug-resistance in cancer cells. The myeloma cell lines KMS28PE (A & B) and ARP1 (C & D) including both bortezomib-sensitive and bortezomib-resistant (vel-R) were treated with KP372-1 at concentrations of 1 μM and 5 μM for 5 days.
To determine whether the NEK2 inhibitor KP372-1 can overcome drug resistance in KMS28PE- and ARP1-bortezomib resistant myeloma cell lines, we treated with KP372-1 at concentrations of 1 μM and 5 μM.

[4] = biological target: Purified recombinant NEK2 kinase protein (Homo sapiens, UniProt P51955); conditions: read-out: IC50 (NEK2 kinase activity, titration assays); titration of screening hits
Chain of Purified recombinant NEK2 kinase protein (P51955 whole entry): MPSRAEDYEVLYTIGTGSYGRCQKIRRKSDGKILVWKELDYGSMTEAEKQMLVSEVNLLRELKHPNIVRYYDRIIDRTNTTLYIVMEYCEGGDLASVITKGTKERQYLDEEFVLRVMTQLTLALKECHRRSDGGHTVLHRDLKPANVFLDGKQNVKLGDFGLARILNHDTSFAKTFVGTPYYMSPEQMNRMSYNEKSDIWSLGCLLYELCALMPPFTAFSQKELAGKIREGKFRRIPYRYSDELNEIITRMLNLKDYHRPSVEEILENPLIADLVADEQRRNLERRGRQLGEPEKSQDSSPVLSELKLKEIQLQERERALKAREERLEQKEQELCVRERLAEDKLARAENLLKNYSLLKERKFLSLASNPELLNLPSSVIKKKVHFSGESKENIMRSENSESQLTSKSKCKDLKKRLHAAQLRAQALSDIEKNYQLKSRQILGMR
Procedure: NEK2 kinase activity assay. Purified recombinant NEK2 kinase protein (Cell Signaling Technology, Beverley, Mass.), was added to 96 well plates in the appropriate reaction buffer. Compounds were added to each well to a final concentration of 5 μM. Reaction mixtures were incubated for 15 minutes. The Kinase-Glo Luminescent Kinase Assay kit (Promega, Madison, Wis.) was used to determine the remaining ATP, which is inversely related to kinase activity.
By NEK2 kinase activity assay, we screened a Kinase Inhibitor Library from Calbiochem Inc. (San Diego, Calif.).

[5] = system: 5TGM1 multiple myeloma cells; experiment: Efficacy of KP372-1 in a mouse model of multiple myeloma; assay type: in vivo, C57BL/KaLwRij mice; conditions: for tumor burden (tumor volumes): FIG. 10b
Procedure: Efficacy of KP372-1 in a mouse model of multiple myeloma. C57BL/KaLwRij mice (n=5 in each group) were injected with 1×10^6 5TGM1 cells through their tail vein. Seven days following tumor inoculation, tumor-bearing mice were treated with KP372-1, bortezomib or a combination of KP372-1 with bortezomib.
KP372-1 (NI-2) was used to treat 8 mice in each study group including four groups with single agent or combination with bortezomib (velcade). 1×10^6 5TGM1 multiple myeloma cells (in 100 μL PBS) were injected into each mouse through the tail vein and tumors were allowed to grow for 1 week. Treatment with bortezomib (1 mg/kg, 2 times/week, sc), NI-2 (0.8 mg/kg 3 times/week, sc), and the combination of KP372-1 (NI-2) with bortezomib (velcade) was performed 1 week after injection.
We also developed a bortezomib-resistant 5TGM1 line (5TGM1-DR) using a stepwise increase of the bortezomib concentration in the cultures. […] We examined the effects of KP372-1 treatment on the growth of 5TGM1 myeloma mouse. KP372-1 was given to 8 mice in each of the five groups, including single agent or combination treatment with bortezomib: 5TGM1-WT, 5TGM1-DR, 5TGM1-DR+KP372-1 (0.8 mg/kg, 3 times/week, s.c), 5TGM1-DR+bortezomib (1 mg/kg, 2 times/week, s.c), 5TGM1-DR+bortezomib+KP372-1.

[6] = system: 5TGM1 cells; experiment: Bortezomib treatment of bortezomib-resistant and wild-type 5TGM1 cells; assay type: cell-based
[7] = system: NEK2-transfected ARP1, KMS28PE, H1299, MCF7, and MDA231 cells; experiment: Treatment of NEK2-overexpressing cancer cells with chemotherapeutic drugs; assay type: cell-based; conditions: 48 hours; for growth inhibition in NEK2-transfected cells compared with EV-transfected controls: P<0.05; for cell death in NEK2-transfected cells compared with EV-transfected controls: P<0.05, data not shown
Procedure: Treatment of NEK2-overexpressing MM cells with chemotherapeutic drugs. To determine the role of NEK2 in cancer drug-resistance, ARK, KMS28PE, OCI-MY5, H1299, and MCF7 cell lines were transfected with NEK2-cDNA to overexpress NEK2 by lentivirus expression vector system. 1×10^6 cells were treated with bortezomib at 5 nM for 48 hours in the cultures. Cell proliferation was evaluated by cell counting with a hemocytometer, and dead cells were determined by trypan blue staining, from which dead-cell fraction was calculated. Untreated cells and empty-vector (EV)-transfected cells with or without drug-treatment were used as controls.
To determine whether NEK2 over-expression is sufficient to confer drug-resistance in cancer cells, NEK2-transfected ARP1, KMS28PE, H1299, MCF7, and MDA231 cells were then treated with bortezomib at the dose of 4, 8, and 16 nM bortezomib for 48 hours and cell death was evaluated. EV-transfected cells with or without bortezomib served as controls.

[8] = system: RPMI8226 cells; experiment: Bortezomib treatment of bortezomib-resistant and parental RPMI8226 cells; assay type: cell-based; conditions: Homo sapiens
Description: (§1) To test the role of NEK2 in promoting cell growth, we over-expressed NEK2 in normal fibroblasts BJ, the MM cell lines ARP1, KMS28PE, and OCI-MY5, the lung cancer cell line H1299, and breast cancer cell line MDA231 by lentivirus-mediated NEK2-cDNA transfection (FIG. 2a). […] We subsequently examined the role of NEK2 in myeloma drug-resistance. We developed 2 bortezomib-resistant MM cell lines, RPMI 8226 and ARP1, by a stepwise increase of the bortezomib concentration in cultures.

[9] = system: ARP1 cells; experiment: Bortezomib treatment of bortezomib-resistant and parental ARP1 cells; assay type: cell-based
Description: as §1

[10] = NEK2-transfected and EV control cells
[11] = KP372-1 1 μM and 5 μM, 5 days, both vel-R and sensitive lines

Compound: O=C1c2ccccc2-c2nc3nnnn3nc21.O=C1c2ccccc2-c2nn3nnnc3nc21 [KP372-1]
- NEK2 expression [1]: significantly inhibits NEK2 expression
- NEK2 expression ([1]; listed as NI-2): inhibits NEK2 expression
- anti-proliferative and apoptotic activity, NEK2-transfected versus EV control cells [2]: stronger anti-proliferative and apoptotic activity in the NEK2-transfected cells than the EV control cells
- cell death [2, 10]: induced significantly cell death; also recorded: induced cell growth inhibition and death
- growth inhibition [2, 10]: induced significantly cell death and growth inhibition
- cell death [3, 11]: cell death
- growth inhibition [3, 11]: significant growth inhibition
- IC50 [4]: 0.067 µM
- tumor burden (tumor volumes) ([5]; P<0.05): reduced tumor burden
- mouse survival, 5TGM1-DR mice ([5]; KP372-1 0.8 mg/kg, 3 times/week, s.c, P<0.01): able to overcome drug resistance and extend mouse survival
- growth of 5TGM1 tumors compared with untreated control ([5]; NI-2 0.8 mg/kg 3 times/week sc, bortezomib 1 mg/kg 2 times/week sc, start 1 week after injection, P<0.05): significantly inhibited the growth of 5TGM1 tumors

- IC50 ([6]; 5TGM1, 5TGM1-R (bortezomib-resistant)): 0.25 µM
- IC50 ([6]; 5TGM1, wild-type 5TGM1 cells (5TGM1-WT)): 0.00526 µM
Compound: CC(C)C[C@H](NC(=O)[C@H](Cc1ccccc1)NC(=O)c1cnccn1)B(O)O [bortezomib]
- cell death in drug-resistant cells compared with parental controls ([3]; bortezomib treatment): significantly less growth inhibition and cell death
- growth inhibition in drug-resistant cells compared with parental controls ([3]; bortezomib treatment): significantly less growth inhibition
- tumor burden (tumor volumes) ([5]; P<0.05): reduced tumor burden
- growth inhibition in NEK2-transfected cells compared with EV-transfected controls ([7]; 8 nM): significantly less growth inhibition
- IC50 ([8]; RPMI-8226, parental RPMI8226 cells): 0.00475 µM
- IC50 ([8]; bortezomib-resistant RPMI8226 cells): 0.25 µM
- IC50 ([9]; ARP-1, bortezomib-resistant ARP1 cells): 0.0258 µM
- IC50 ([9]; ARP-1, parental ARP1 cells): 0.00747 µM

Compound: COc1cccc2c1C(=O)c1c(O)c3c(c(O)c1C2=O)C[C@@](O)(C(=O)CO)C[C@@H]3O[C@H]1C[C@H](N)[C@H](O)[C@H](C)O1 [doxorubicin]
- growth inhibition in NEK2-transfected cells compared with EV-transfected controls ([7]; 100 nM): significantly less growth inhibition
- cell death in NEK2-transfected cells compared with EV-transfected controls ([7]; 100 nM): significantly less

Compound: COc1cc([C@@H]2c3cc4c(cc3[C@@H](O[C@@H]3O[C@@H]5CO[C@@H](C)O[C@H]5[C@H](O)[C@H]3O)[C@H]3COC(=O)[C@H]23)OCO4)cc(OC)c1O [etoposide]
- growth inhibition in NEK2-transfected cells compared with EV-transfected controls ([7]; 100 nM): significantly less growth inhibition
- cell death in NEK2-transfected cells compared with EV-transfected controls ([7]; 100 nM): significantly less

Reference: patent US20120178089A1, “MATERIALS AND METHODS FOR THE IDENTIFICATION OF DRUG-RESISTANT CANCERS AND TREATMENT OF SAME” (priority 2009, published 2012)
